Where two headings read alike, the source gives them in different places.
What was measured:
[1] = water; cited from earlier work
[2] = format: physicochemical
[3] = in vivo
[4] = in vivo, pH 4.8
[5] = set-up: species or system human; conditions: in vivo

Row | SMILES | pK1 (pKa) [1] | further results
1 | O=C(O)C(O)CO (racemic) [DL-Glyceric acid, 2,3-dihydroxypropanoic acid] | 3.64 | –
2 | CCC(O)C(=O)O (centres unmarked) [2-Hydroxybutanoic acid] | 3.65 | –
3 | O=C(O)C(O)CCl (centres unmarked) [3-Chlorolactic acid] | 3.12 | –
4 | CC(O)(C(=O)O)c1ccccc1 (centres unmarked) [Atrolactic acid, 2-phenyl 2-methyl 2-hydroxyethanoic acid] | 3.53 | –
5 | O=C(O)C(O)C(O)C(O)C(O)CO [D-Gluconic acid, 2,3,4,5,6-pentahydroxyhexanoic acid] | 3.86 | –
6 | O=C(O)C(O)C(O)C(O)C(O)C(=O)O (centres unmarked) [Glucaric acid, 2,3,4,5-tetrahydroxyhexane-1,6-dioic acid] | 5.00 | –
7 | O=C(O)CO [Glycolic acid, 2-hydroxyethanoic acid] | – | anion content (glycolate) ([2]; pH 3.2): 2%; free acid content ([2]; pH 3.2): 8%; anion content (glycolate) ([2]; pH 3.83): 5%; free acid content ([2]; pH 3.83): 5%
8 | C[C@H](O)CC(=O)O [L-3-Hydroxybutanoic acid] | 4.41 | –
9 | C[C@H](O)C(=O)O [L-Lactic acid, 2-hydroxypropanoic acid] | – | anion content (lactate) ([2]; pH 3.86): 5%; free acid content ([2]; pH 3.86): 5%
10 | O=C(O)CC(O)C(=O)O (centres unmarked) [Malic acid, 2-hydroxybutane-1,4-dioic acid] | 3.46 | pK2 [1]: 5.10
11 | O=C(O)C(O)c1ccccc1 (centres unmarked) [Mandelic acid, 2-phenyl 2-hydroxyethanoic acid] | 3.41 | –
12 | CC(C)(O)C(=O)O [Methyllactic acid, 2-methyl 2-hydroxypropanoic acid] | 3.72 | –
13 | CC(=O)C(=O)O [Pyruvic acid, 2-ketopropanoic acid] | 2.49 | –
14 | O=C(O)C(O)C(=O)O [Tartronic acid, 2-hydroxypropane-1,3-dioic acid] | 2.37 | pK2 [1]: 4.74
15 | O=C(O)C(CO)c1ccccc1 (centres unmarked) [Tropic acid, 2-phenyl-3-hydroxypropanoic acid] | 3.53 | –
16 | Oc1ccc(O)cc1 [hydroquinone] | – | improvement of pigmented and non-pigmented spots and patches [3]: improved very slightly
17 | CC(O)C(=O)O (centres unmarked) [lactic acid, 2-hydroxypropanoic acid] | – | skin irritation [4]: can still irritate sensitive skin or atopic skin; anion content (lactate) ([2]; pH 4.5): 8%; free acid content ([2]; pH 4.5): 2%
18 | O=C(O)c1ccccc1O [salicylic acid] | – | improvement of acne lesions [5]: improved slightly
